How the values were obtained:
[1] = biological target: T1, ACAT in J774 cells (Mus musculus, UniProt Q61263); experiment: inhibitory activity against ACAT using J774 cells; type: cell-based; settings: 100 nM of each compound, mean ± S.D., n = 3, 4 hours at 37° C., vs DMSO control, read-out: Inhibition rate against ACAT activity in J774 cells (%)
T1 construct: endogenous in cells; host or cells: J774 cells (mouse macrophage-like)
T1 sequence (Q61263 1-540): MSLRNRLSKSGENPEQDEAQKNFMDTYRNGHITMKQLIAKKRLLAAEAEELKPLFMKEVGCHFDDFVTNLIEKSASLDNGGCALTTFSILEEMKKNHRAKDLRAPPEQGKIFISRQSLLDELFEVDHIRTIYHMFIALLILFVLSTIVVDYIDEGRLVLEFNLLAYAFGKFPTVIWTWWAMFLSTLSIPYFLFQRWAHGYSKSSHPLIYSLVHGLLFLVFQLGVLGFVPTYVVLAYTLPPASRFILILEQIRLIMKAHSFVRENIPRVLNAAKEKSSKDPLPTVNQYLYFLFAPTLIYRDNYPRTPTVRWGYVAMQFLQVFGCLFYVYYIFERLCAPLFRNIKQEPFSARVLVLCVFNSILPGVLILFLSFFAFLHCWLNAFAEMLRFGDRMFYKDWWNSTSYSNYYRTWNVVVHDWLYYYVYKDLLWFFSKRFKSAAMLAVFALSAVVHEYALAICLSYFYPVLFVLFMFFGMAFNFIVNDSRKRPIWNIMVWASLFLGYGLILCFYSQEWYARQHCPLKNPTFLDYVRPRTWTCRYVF
Procedure: i) Test for inhibitory activity against ACAT using J774 cells:
The ACAT activity of J774 cells was measured as the radioactivity of cholesteryl oleate produced from [^14 C]oleic acid and cholesterol which were added to a culture solution.
Added to the cells were [^14 C]oleic acid, delipidized BAS (bovine serum albumin), […] (0.3M glucose solution containing cholesterol and phosphatidylcholine at a weight ratio of 2:1) and 25-hydroxycholesterol to culture the cells for 4 hours at 37° C. under 5% CO2. After the culturing, the cultured cells were disrupted with a 1% SDS (sodium lauryl sulfate) solution, and the lipid in the disrupted solution was extracted with hexane. The extract was dried to solid under reduced pressure. After the resultant residue was then developed (developing solvent: diethyl ether/hexane/acetic acid=80/20/1) by TLC (thin-layer chromatography), the amount of cholesteryl oleate formed was determined by an imaging plate.

[2] = biological target: T2, ACAT of rat liver microsome (Rattus norvegicus, UniProt Q7TQM4); experiment: inhibitory activity against ACAT using rat liver microsome; type: biochemical; settings: 5 min; 100 nM of each compound; Mean + S.D.; n = 3; 37° C. for 5 minutes; vs DMSO control; read-out: Inhibition rate against ACAT activity in rat liver microsome (%)
T2 construct: from tissue; host or cells: rat liver microsomes
T2 sequence (Q7TQM4 1-524): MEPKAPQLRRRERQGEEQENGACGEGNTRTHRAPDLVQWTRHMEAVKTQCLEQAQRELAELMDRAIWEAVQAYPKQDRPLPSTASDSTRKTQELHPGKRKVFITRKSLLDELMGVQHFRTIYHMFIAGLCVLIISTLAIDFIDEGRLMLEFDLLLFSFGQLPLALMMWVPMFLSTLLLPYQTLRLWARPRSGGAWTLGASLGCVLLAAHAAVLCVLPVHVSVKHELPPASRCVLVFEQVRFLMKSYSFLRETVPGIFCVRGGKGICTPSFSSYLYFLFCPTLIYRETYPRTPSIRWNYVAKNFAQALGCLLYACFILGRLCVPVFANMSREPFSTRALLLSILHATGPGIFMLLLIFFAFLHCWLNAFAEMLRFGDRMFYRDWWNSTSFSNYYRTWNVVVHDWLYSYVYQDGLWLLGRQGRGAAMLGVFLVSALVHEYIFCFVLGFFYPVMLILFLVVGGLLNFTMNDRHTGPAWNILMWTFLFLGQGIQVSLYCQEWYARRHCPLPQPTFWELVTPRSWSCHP
Procedure: - ii) Test for inhibitory activity against ACAT using rat liver microsome
The ACAT activity of rat liver microsome was measured as the radioactivity of cholesteryl oleate produced from [^14 C]oleoyl-CoA and endogenous cholesterol.
More specifically, [^14 C]oleoyl-CoA and delipidized BSA were added to a rat liver microsome fraction prepared in accordance with a method known per se in the art to conduct a reaction at 37° C. for 5 minutes. After the reaction, the lipid in the reaction mixture was extracted with hexane, and the extract was dried to solid under reduced pressure. After the resultant residue was then developed (developing solvent: diethyl ether/hexane/acetic acid 80/20/1) by TLC, the amount of cholesteryl oleate formed was determined by an imaging plate.

inhibition at 0.1 µM [1] [%]	inhibition at 0.1 µM [2] [%]	Compound
36.9 ± 11.9	82.3 ± 2.79	Cc1cc2ncc(NC(=O)Nc3ccc(F)cc3F)c(-c3ccccc3Cl)c2cc1C [TMP-153]
77.8 ± 4	7.87 ± 9.26	COc1ccc(C(=CNC(=O)Nc2c(C(C)C)cccc2C(C)C)c2ccc(OC)cc2)cc1 [Compound 3]

— patent US5866609A, “Substituted vinylurea derivatives and medicine containing the same” (SS Pharmaceutical Co., Ltd., priority 1996, dated 1999)
